The text below walks through data of US9302014B2, “Cell-penetrating peptides having a central hydrophobic domain” (Medical Research Council, priority 2011, dated 2016).

The conditions of series [1]: monkeys; cited from earlier work.
For series [2] the following is noted: mice; cited from earlier work.
For series [3], the system named is dystrophin exon 23. Put plainly: Exon skipping in differentiated mouse H2K mdx myotubes (nested RT-PCR, densitometry). In kind it is cell-based. The following applies: no transfection agent. How it is done: The exon skipping potential of Pip6-PMO conjugates was evaluated in differentiated mouse H2K mdx myotubes in the absence of any transfection agent (FIG. 1) at concentrations ranging from 0.125 μM to 1 μM. […] In the case of Pip6 sequences, the flanking arginine-rich sequences are identical (with the exception of Pip6e, which is identical except for one arginine immediately preceding the core which is displaced into the second position of the core). […] Note that we have previously shown that major changes in in vitro exon skipping activities are correlated instead with the total numbers of arginine residues [Saleh, A. F., et al., Synthesis and splice-redirecting activity of branched, arginine-rich peptide dendrimer conjugates of peptide nucleic acid oligonucleotides. Bioconjug Chem, 2010. 21(10): p. 1902-11.].
H2K mdx myotubes are derived from H2K mdx myoblasts obtained from the EDL muscle of a male H2K mdx f2 mouse. The cells are dystrophin deficient and conditionally immortal due to thermolabile simian virus 40 large tumor antigen (tsA58) expression. The myoblasts proliferate at 33° C. (10% CO2) in rich culture and differentiate into myotubes at 37° C. in media with horse serum.
H2K mdx myotubes were prepared and incubated with peptide-PNA and peptide-PMO conjugates in the absence of any transfection agent by the methods described previously (Wang, Q, Yin, H, et aL (2010) In vitro evaluation of novel antisense oligonucleotides is predictive of in vivo exon skipping activity for Duchenne muscular dystrophy) but with minor variations.
Myotubes were obtained from confluent H2K mdx cells seeded in gelatine coated 24-well plates following 2 days of serum deprivation (DMEM with 5% horse serum). The conjugates were incubated with myotubes for 4 h in 0.5 mL OptiMEM and then replaced by 1 mL of DMEM/5% horse serum media for further incubation. After 20 h myotubes were washed twice with PBS and total RNA was extracted with 0.5 mL of TRI Reagent (Sigma, UK). RNA preparations were treated with RNAse free DNAse (2U) and Proteinase K ([…]) prior to RT-PCR analysis. RT-PCR was carried out in 25 μL with 1 μg RNA template using SuperScript III One-Step RTPCR System with Platinum Taq DNA polymerase (Invitrogen) primed by forward primer 5′CAG AAT TCT GCC AAT TGC TGAG3′ [SEQ ID NO:312] and reverse primer 5′TTC TTC AGC TTG TGT CAT CC3′ [SEQ ID NO:313]. The initial cDNA synthesis was performed at 55° C. for 30 min followed by 30 cycles of 95° C. for 30 sec, 55° C. for 1 min and 68° C. for 80 sec. RT PCR product ([…]) was then used as the template for secondary PCR performed in 25 μL with 0.5 U Super TAQ polymerase (HT Biotechnologies) and primed by forward primer 5′CCCAGTCTACCACCCTATCAG AGC3′ [SEQ ID NO:314] and reverse primer 5′CCT GCC TTT AAG GCT TCC TT3′ [SEQ ID NO:315]. The cycling conditions were 95° C. for 1 min, 57° C. for 1 min and 72° C. for 80 sec for 25 cycles. Products were examined by 2% agarose gel and after scanning using Gene Tools Analysis Software (SynGene) the relative amount of exon 23 skipping was expressed as a percentage at a given concentration of conjugates averaged over duplicates of three experiments.
H2K mdx myotubes were prepared and incubated with peptide-PMO conjugates in the absence of any transfection agent at concentrations of 0.125, 0.25, 0.5 and 1.0 μM by the method described previously [Yin, H., et al., Pip5 transduction peptides direct high efficiency oligonucleotide-mediated dystrophin exon skipping in heart and phenotypic correction in mdx mice. Mol Ther, 2011. 19(7): p. 1295-303.]. The products of nested RT-PCR from total isolated RNA were examined by electrophoresis on a 2% agarose gel. Quantification of Δ23 transcript levels was calculated using densitometry. […]

Series [4] relates to dystrophin. Put plainly: Immunohistochemical staining and quantification of dystrophin in mdx mice after single IV injection. In kind it is in vivo. The settings on record: 8 week old mdx mice, single 12.5 mg/kg IV, 2 weeks after injection. The text has this: Given the potency of Pip5e-PMO in heart tissue, the aim of altering the sequence of the hydrophobic core (whilst maintaining the 5-aa length) was to identify peptides that might be more efficient at lower doses. These modifications included inversion of the hydrophobic region (Pip6a), substitution of tyrosine by isoleucine (Pip6b), substitution of glutamine in the Pip6a sequence by displacement of the arginine immediately flanking the core in the first arginine-rich flanking region (Pip6e), and a scrambled hydrophobic core sequence (Pip6f). All Pip6 peptide-PMO conjugates were administered to mdx mice as single 12.5 mg/kg intravenous injections via the tail vein and tissues were harvested 2 weeks later and assessed for activity at both RNA and protein levels.
Immunohistochemical staining quantification (FIGS. 34a, b) was performed as previously described [Malerba, A., et al., Chronic systemic therapy with low-dose morpholino oligomers ameliorates the pathology and normalizes locomotor behavior in mdx mice. Mol Ther, 2011. 19(2): p. 345-54; Arechavala-Gomeza, V., et al., Immunohistological intensity measurements as a tool to assess sarcolemma-associated protein expression. Neuropathol Appl Neurobiol, 2010. 36(4): p. 265-74.] and was achieved by taking 4 representative frames of the dystrophin staining and correlating this with laminin staining for each section (n=3) of the quadriceps, diaphragm and heart for each peptide-PMO treatment. Untreated mdx and treated mdx mice were normalised to C57BL10 mice. This method allows comparison of the staining intensity of dystrophin at the sarcolemma relative to laminin for each treatment group. Intensity ratios are normalised to C57BL10 samples and each region of interest at the sarcolemma (120 regions for each treatment group) is plotted on a scatter graph. […]
Transverse sections of tissue samples were cut (8 μm thick) for the examination of dystrophin expression. For dystrophin visualisation and quantification, sections were co-stained with rabbit-anti-dystrophin (Abcam) and rat anti-laminin (Sigma), and detected by goat-anti-rabbit IgG Alexa 594 and goat-anti-rat IgG 488 secondary antibodies respectively (Invitrogen). […] Quantitative immunohistochemistry was performed as previously described [Malerba, A., et al., Chronic systemic therapy with low-dose morpholino oligomers ameliorates the pathology and normalizes locomotor behavior in mdx mice. […] For quantification, 4 representative frames of the dystrophin and correlating laminin were taken for each section (n=3) of the quadriceps, diaphragm and heart for each treatment. […] The minimum and maximum fluorescence intensity for 120 regions were recorded for each treatment. […]

In series [5] the test system is dystrophin. The settings on record: intramuscular or intravenous delivery in mdx mice; cited from earlier work.
The mark [6] stands for this setting: Example 5, conjugate 0.125 to 2.0 μM.

Where two headings read alike, the source gives them in different places. Non-standard residues stand in square brackets, D forms with d. No end group written: not given here. Ahx = NCCCCCC(=O)O; βAla = NCCC(=O)O

Turning to “Exon-skipping PMO: phosphorodiamidate morpholino oligonucleotide for exon skipping, unconjugated, from cited toxicology studies (GGCCAAACCTCGGCTTACCTGAAAT; all phosphorodiamidate morpholino (PMO))”, the well tolerated dosage is reported as at most 320 mg/kg in series [1] and at most 960 mg/kg in series [2]. With “Pip7d: Pip7 series peptide (SEQ ID NOs:11-16) conjugated to PMODMD (R[Ahx]R[βAla][Ahx]YRFLI[Ahx]R[βAla]R[Ahx]R[βAla]; also: conjugated to PMO (PMODMD), site not given here)”, in series [3] (conjugate 0.125 to 1 μM), the “exon skipping activity (Δ23 skipping) in mdx muscle cells” value (“exon skipping activity (Δ23 skipping)” below) is “moderate exon skipping”. Consider “Pip8a: Pip8 series peptide (SEQ ID NOs:17-20, parent Pip 6a; 9 Arg) conjugated to PMODMD (R[Ahx]RR[βAla]R[Ahx]RYQFLIR[Ahx]RR[βAla]R[βAla]; also: conjugated to PMO (PMODMD))”, for which the “exon skipping activity (Δ23 skipping)” value in series [3] (setting [6]) and in series [3] (conjugate 0.125 to 1 μM) was “high exon skipping activity” in each case. Take “Pip8c2: Pip8 series peptide (SEQ ID NOs:17-20) conjugated to PMODMD (R[Ahx]RR[βAla]RYQFLIRR[βAla]R[βAla]; also: conjugated to PMO (PMODMD))”: the “dystrophin expression in the heart” value in series [4] is recorded as “negligible dystrophin production”. Also, in series [3] (setting [6]), the “exon skipping activity (Δ23 skipping)” value is recorded as “high exon skipping activity”. For “Pip8d: Pip8 series peptide (SEQ ID NOs:317-319) conjugated to PMODMD (R[Ahx]RR[βAla]RYQFLI[βAla]R[Ahx]R[βAla]; also: conjugated to PMO (PMODMD))”, the “exon skipping activity (Δ23 skipping)” value in series [3] (setting [6]) is recorded as “high exon skipping activity”. On the same count and under the same terms, next, “Pip9c2: Pip9 series peptide (SEQ ID Nos 320-328) conjugated to PMODMD (R[Ahx]RR[βAla]RRFQILY[βAla]R[Ahx]R[βAla]; also: conjugated to PMO (PMODMD))”: “high exon skipping activity”; “Pip9c3: Pip9 series peptide (SEQ ID Nos 320-328) conjugated to PMODMD (R[Ahx]RR[βAla]RFQILYRR[βAla]R[βAla]; also: conjugated to PMO (PMODMD))”: “high exon skipping activity”.

For the substance “Pip9d: Pip9 series peptide (SEQ ID Nos 320-328) conjugated to PMODMD (R[Ahx]RR[βAla]RFQILY[βAla]R[βAla]R[βAla]; also: conjugated to PMO (PMODMD))”, the “dystrophin expression in the heart” value in series [4] was “negligible dystrophin production”. In addition, the “exon skipping activity (Δ23 skipping)” value in series [3] (setting [6]) is recorded as “high exon skipping activity”. “RXRRBRRXRRBRXB (R[Ahx]RR[βAla]RR[Ahx]RR[βAla]R[Ahx][βAla]; also: conjugated to PMO (PMODMD)) [B peptide]”: in series [5], the “exon skipping and dystrophin production compared to naked PMODMD” value is “significantly enhance exon skipping and dystrophin production”.
